Assay results reported in US20170176446A1, “Methods for Determining the Oncogenic Condition of Cell, Uses Thereof, and Methods for Treating Cancer” (INSERM (INSTITUT NATIONAL DE LA SANTE ET DE LA RECHERCHE …, priority 2009, published 2017).

How the values were obtained:
T lymphocytes = conditions: concentrations between 1 and 20 μM; cited from earlier work
IL10 = IL10 gene expression in THP1 cells treated with OCDO; format: cell-based, human; conditions: 10 μM OCDO, 4 hours
Method: (§1) The THP1 cells (human myeloid cell line supplied by ATCC) are cultured with a culture medium of DMEM type (Dulbecco's modified eagle medium) supplemented with 10% of fetal calf serum and a mixture of antibiotics. The THP1 cells are treated with 10 μM of OCDO for 4 hours. The RNAs are extracted according to a conventional procedure. The complementary DNAs are produced, and then used to measure the expression of the genes of interest. The expression of the genes encoding interleukin 12 (IL12) and interleukin 10 (IL10) were studied, these interleukins representing a pair of cytokines with antagonistic properties. IL12 is an immunostimulatory cytokine, whereas IL10 is an immunosuppressive cytokine. The expression ratio of these two cytokines makes it possible to evaluate the immunosuppressor or immunostimulatory potential of the cell and its ability to promote tumor progression or, on the contrary, to slow it down.
(§2) The primers used correspond to the human sequences of IL10 and of IL12 and are the following: […]

IL12 = IL12 gene expression in THP1 cells treated with OCDO; format: cell-based, human; conditions: 10 μM OCDO, 4 hours
Method: as §1, §2

NK cell = conditions: concentrations between 1 and 20 μM; cited from earlier work
TT cells [1] = experiment: Effect of OCDO on TT cell proliferation in vitro; format: cell-based, human; conditions: 5 μM OCDO, 4 days of treatment, versus solvent
Method: (§3) a) In this example 2, the human medullary thyroid carcinoma cell line TT (American Tissues and Cells Collection) was used. This line is cultured in an F12K medium modified by Kaighn (sold by the company Invitrogen), containing 10% by weight of fetal calf serum and 2.5 ml of a solution of antibiotics (penicillin/streptomycin) at […]. The OCDO tested comes from the company Steraloids. In order to study in vitro the effect of OCDO on cell growth, the TT cells are seeded on to six-well plates (200 000 cells per well) in an F12K medium as defined above. The TT cells are treated every two days either with a solvent (ethanol at 0.1% in PBS phosphate buffer) or with amounts of OCDO in the solvent resulting in concentrations of 0.1, 1, 2.5 or 5 μM. The cells are counted 4 days after seeding. […] At the OCDO concentration of 5 μM, a proliferation induction factor of 1.5 is measured after 4 days of treatment; the induction of proliferation is therefore established in vitro for OCDO concentrations of between 100 nM and 5 μM. […] The animals (5 or 10 mice per group) are monitored regularly in order to measure tumor development. The volume of the tumors is calculated according to the formula L×l^2×0.5, where L is the length and l is the width of the tumor. […]

[2] = tested on: phorbol ester-binding protein; conditions: cited from earlier work
TT cells [3] = experiment: Effect of OCDO on TT tumors implanted in Swiss nude mice; format: in vivo
Method: as §3
The animals were euthanized after 75 days of treatment and the tumor and the various organs were removed in order to be analyzed histologically. […]

leukocyte = conditions: concentrations between 1 and 20 μM; cited from earlier work
[4] = tested on: T lymphocytes originating from human serum; conditions: concentrations between 1 and 20 μM; cited from earlier work
OCDO = OCDO content of TS/A tumors by GC/MS; format: in vivo, mice; conditions: tamoxifen 10 μM, 100 μl intratumorally once a day
Method: 5 volumes (relative to the mass removed) of buffer (50 mM Tris-HCl, 150 mM KCl, pH=7.4) are added. The tumors are ground and the homogenates are centrifuged for 5 minutes at 2500 rpm at 4° C. […] After centrifugation (to separate the phases), the organic phase is recovered. The organic phase is evaporated to dryness and then the residue is taken up with 0.5 ml of chloroform. The organic extracts are filtered on 0.5 ml silica cartridges. The polar sterols are eluted sequentially:
1) 0.5 ml of a hexane/chloroform mixture (1/1), 2) 0.5 ml of chloroform, 3) 0.5 ml of ethyl acetate and methanol.
The ethyl acetate fractions are evaporated, silylated (50 μl 1/1 acetonitrile/BSTFA) and then analyzed by GC/MS (2 μl) according to the conditions described above.

TS/A cells = experiment: Tumor size of TS/A tumors implanted in BALB/c mice, intratumoral treatment; format: in vivo; conditions: for Tumor size (% control): tamoxifen 10 μM, 100 μl intratumorally once a day
Method: A cell culture of TS/A cells was first performed. These TS/A cells are mouse mammary adenocarcinomas (see Nanni P et al., Clin. Exp. Metastasis, 1983 October-December; 1(4): 373-80). The cells are cultured, at 37° C. under 5% CO2, in a DMEM medium supplemented with 2 g/liter of sodium carbonate, 1.2 mM of glutamine (pH 7.4 at 23° C.), 5% of fetal bovine serum (Gibco) and 2.5 ml of antibiotics per liter of medium (penicillin/streptomycin).
The TS/A cells are recovered with trypsin, washed twice and suspended in PBS buffer. The TS/A cells (approximately 4×10^6 […] cells/0.1 ml) are then injected subcutaneously into the flank of 6-week-old female BALB/c mice (supplied by Charles River). […] The animals (10 mice per group) are monitored regularly for tumor development. The volume of the tumors is calculated according to the following formula: L×l^2×0.5 (L is the length and l is the width of the tumor). The experiment was reproduced twice. The results are given in FIG. 18 (the arrow indicates the beginning of the treatment).

ChEH [5] = target: T1, ChEH (Mus musculus, UniProt P70245); experiment: Conversion of [14C]CEα in cells of healthy mouse tissues with or without tamoxifen; format: cell-based; conditions: incubation with tamoxifen
T1 construct: evaluated in cells of various healthy mouse tissues; from tissue; host or cells: cells from various healthy mouse organs

ChEH [6] = target: T2, ChEH (Homo sapiens, UniProt Q15125); experiment: Inhibition of ChEH activity in MCF7 cells (TLC of [14C]CE conversion); format: cell-based; conditions: tamoxifen 0.01-5 μM with [14C]CEα; PBPE 0.01-10 μM with [14C]CEβ
T2 construct: MCF7 tumor cells, which originate from the American Tissue Culture Collection (ATCC), were used; host or cells: MCF7
Method: For this experiment, an aminoalkyl sterol included in French patent 2 838 741 (and also see: de Medina et al., J Med Chem: 2009, vol. 52, No. 23, p. 7765-7777), having the formula: 6-N-[2-(3H-imidazol-4-yl)ethylamino]cholestane-3β,5α-diol (DDA), was chosen. […]
A thin-layer chromatography was carried out, the plate of which has been reproduced in FIG. 23. On this plate, the incubation is carried out, for lane 1, with [^14C]CE; for lane 2, with [^14C]CT; for lane 3, with the vehicle solvent, which is the same as that used for assays 1 to 5; for lane 4, with [14C]CE and 0.1 μM of the aminoalkyl sterol; and for lane 5, with [^14C]CE and a concentration of 1 μM of the aminoalkyl sterol.

MCF7 cells = experiment: OCDO production by MCF7 cells incubated with [14C]CE, thin-layer chromatography; format: cell-based, human
From the text: For assays 1 to 5 and in some of the examples given later in this patent application, MCF7 tumor cells, which originate from the American Tissue Culture Collection (ATCC), were used. […] It is desired to study the activity of ChEH in […] cells by silica thin-layer chromatography. The compounds that it is desired to visualize are the CE and CT compounds defined above. In order to visualize the spots corresponding to CE and CT on a chromatography plate, ^14C-labeled CE and CT compounds were synthesized.
In order to be used in assays 1 to 5 which follow, the cells are seeded into 6-well plates at a density of 80 000 cells in a volume of 2 ml. […] After the incubation time desired for the assay, the medium is collected, the cells are washed with cold PBS (phosphate buffer) (2 ml per well) which is pooled with the medium. The cells are then scraped into cold PBS (1 ml for 3 wells); the wells are again rinsed with cold PBS (1 ml for 3 wells). The cell suspension obtained is centrifuged at 1000 rpm for 5 min at 4° C. […] Throughout the rest of this description, the vehicle solvent used is the same as that defined above.
The aqueous and organic radioactivities are counted. The organic phases are brought to dryness under argon. The residue is resuspended in 60 μl of ethanol and then deposited, in a proportion of 20 μl per lane, on to the glass-backed silica plates (Whatman LK-6-DF, 20×20), which are used in the various assays (these plates having been preheated at 100° C. for 1 hour). The migration solvent used is ethyl acetate. The chromatography plates are placed in contact with a “phosphor-screen” plate in a cassette overnight. […] In order to evaluate the more or less dense nature of the spots obtained on the plates, the radioactivity is quantified by densitometry with the “Imagequant”™ computer program.
Generally, in order to establish the percentages of OCDO inhibition from the thin-layer chromatography (TLC) plates obtained as in assay 2, the radioactive metabolites are identified and quantified on the basis of said plates using a europium-sensitive plate of GP Phosphor screen type (GE Healthcare) and a Storm 840 phosphorimagor (GE Healthcare). The proportion of radiolabeled oxysterols is determined on the autoradiogram obtained by densitometry using the Image Quant 5.2 software. The percentage is calculated on the basis of the ratio between the amount of oxysterols quantified divided by the sum of the amounts of oxysterols (CEE+CE+CT+OCDO). Since the CEE (CE ester) originates exclusively from the CE, the percentage CE is calculated on the basis of the ratio (CE+CEE)/(CE+CEE+CT+OCDO).
Assay 2 given above was therefore completed by measuring the amounts of the products present when the MCF7 tumor cells are incubated as indicated in detail in assay 2.
In order to establish that the link that exists between, on the one hand, the ability of various compounds to inhibit OCDO in an MCF7 tumor cell and, on the other hand, their quality as a ChEH inhibitor, is well-founded, the inhibition coefficients Ki for ChEH relating to a certain number of products was calculated and the production of OCDO by MCF7 cells after incubation of the cells with the same products was measured according to the protocol defined in assay 2 of the present patent application.

T1 sequence (P70245 whole entry): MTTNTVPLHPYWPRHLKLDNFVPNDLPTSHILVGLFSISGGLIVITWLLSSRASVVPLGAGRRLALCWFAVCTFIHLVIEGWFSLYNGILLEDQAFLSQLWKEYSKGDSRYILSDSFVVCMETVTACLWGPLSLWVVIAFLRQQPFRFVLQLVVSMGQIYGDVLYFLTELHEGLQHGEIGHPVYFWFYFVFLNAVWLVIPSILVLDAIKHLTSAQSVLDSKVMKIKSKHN
T2 sequence (Q15125 whole entry): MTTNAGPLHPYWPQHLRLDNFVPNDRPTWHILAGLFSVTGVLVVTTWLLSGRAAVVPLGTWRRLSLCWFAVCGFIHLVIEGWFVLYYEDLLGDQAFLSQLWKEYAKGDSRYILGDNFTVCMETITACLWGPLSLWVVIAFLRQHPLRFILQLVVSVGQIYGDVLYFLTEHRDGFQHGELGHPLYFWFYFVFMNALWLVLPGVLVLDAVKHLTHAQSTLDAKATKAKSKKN

| SMILES | cytolytic activity produced by T lymphocytes in mice (T lymphocytes) | expression of the immunosuppressive cytokine IL10 (IL10) | expression of the cytokine IL12 (IL12) | NK cell toxicity in mice (NK cell) | proliferation induction factor (TT cells [1]) | binding to a phorbol ester-binding protein [2] | tumor volume versus control animals treated with the solvent (TT cells [3]; OCDO 50 μg/kg subcutaneously once a day, 5 days out of 7) | invasion of the lymph nodes versus solvent (TT cells [3]; OCDO 50 μg/kg, after 75 days of treatment) | leukocyte mobility (leukocyte) | rosette formation by T lymphocytes [4] | OCDO (% control) (OCDO; Day 28) | OCDO (% control) (OCDO; Day 37) | Tumor size (% control) (TS/A cells; Day 28) | Tumor size (% control) (TS/A cells; Day 37) | tumor mass (TS/A cells; tumor removed on day 28 from one treated animal, control animal tumor 2 g) [g] | formation of CT from [14C]CEα in healthy mouse tissue cells (ChEH [5]) | inhibition of the ChEH activity (3 days) in MCF7 cells (ChEH [6]) | % OCDO (MCF7 cells; MCF7 cells, [14C]CEα, three days, concentration given with each compound, share of labeled oxysterols) [%] | OCDO production by MCF-7 (% control) (MCF7 cells; concentration in μM in parentheses after each molecule, control = 100) |
| --- | --- | --- | --- | --- | --- | --- | --- | --- | --- | --- | --- | --- | --- | --- | --- | --- | --- | --- | --- |
| CC(C)CCC[C@@H](C)[C@H]1CC[C@H]2[C@@H]3CC(=O)[C@@]4(O)C[C@@H](O)CC[C@]4(C)[C@H]3CC[C@]12C [OCDO, 6-oxo-cholestane-3β,5α-diol] | inhibit the cytolytic activity produced by T lymphocytes | stimulates the expression | reduces the expression | induce NK cell toxicity | 1.5 | binds to a phorbol ester-binding protein | almost three times larger | Twice as much invasion of the lymph nodes | inhibit leukocyte mobility | inhibit rosette formation by T lymphocytes |  |  |  |  |  |  |  |  |  |
| CC/C(=C(\c1ccccc1)c1ccc(OCCN(C)C)cc1)c1ccccc1 [Tamoxifen, 2-[4-[(Z)-1,2-di(phenyl)but-1-enyl]phenoxy]-N,N-dimethylethanamine] |  |  |  |  |  |  |  |  |  |  | 19.2 ± 4 | 8.4 ± 4 | 73.5 ± 8 | 46.2 ± 7 | 1.45 | the CT compound no longer appears | Dose-dependent inhibition | 6.9 | <1 |
